From publication PMC5218472 (PLoS Biology, 2017)
Residues, ends and D or L forms follow the SMILES beside them. *: point of attachment. X1 = CC(=O)N[C@@H]1[C@@H](O)[C@H](O[C@@H]2O[C@H](CO)[C@@H](O[C@@H]3O[C@H](CO[C@H]4O[C@H](CO)[C@@H](O)[C@H](O)[C@@H]4O[C@@H]4O[C@H](CO)[C@@H](O[C@@H]5O[C@H](CO)[C@H](O)[C@H](O)[C@H]5O)[C@H](O)[C@H]4NC(C)=O)[C@@H](O)[C@H](O[C@H]4O[C@H](CO)[C@@H](O)[C@H](O)[C@@H]4O[C@@H]4O[C@H](CO)[C@@H](O[C@@H]5O[C@H](CO)[C@H](O)[C@H](O)[C@H]5O)[C@H](O)[C@H]4NC(C)=O)[C@@H]3O)[C@H](O)[C@H]2NC(C)=O)[C@@H](CO)O[C@H]1N*; αGalNAc = CC(=O)N[C@@H]1[C@@H](O)[C@@H](O)[C@@H](CO)O[C@@H]1*

How the values were obtained:
[1] = target: T1, recombinant catalytic domain of ADAM17 (Homo sapiens, UniProt P78536); test: In vitro cleavage assay of IL-6R (glyco)peptides with recombinant ADAM17; conditions: 50 μM peptide, 25 mM Hepes pH 9.0, 16 h, 37°C, RP chromatography
T1 construct: catalytic domain (aa Pro-18 to Val-477) of ADAM17; purchased Enzo Life Sciences GmbH (Lörrach, Germany)
T1 sequence (P78536 18-477): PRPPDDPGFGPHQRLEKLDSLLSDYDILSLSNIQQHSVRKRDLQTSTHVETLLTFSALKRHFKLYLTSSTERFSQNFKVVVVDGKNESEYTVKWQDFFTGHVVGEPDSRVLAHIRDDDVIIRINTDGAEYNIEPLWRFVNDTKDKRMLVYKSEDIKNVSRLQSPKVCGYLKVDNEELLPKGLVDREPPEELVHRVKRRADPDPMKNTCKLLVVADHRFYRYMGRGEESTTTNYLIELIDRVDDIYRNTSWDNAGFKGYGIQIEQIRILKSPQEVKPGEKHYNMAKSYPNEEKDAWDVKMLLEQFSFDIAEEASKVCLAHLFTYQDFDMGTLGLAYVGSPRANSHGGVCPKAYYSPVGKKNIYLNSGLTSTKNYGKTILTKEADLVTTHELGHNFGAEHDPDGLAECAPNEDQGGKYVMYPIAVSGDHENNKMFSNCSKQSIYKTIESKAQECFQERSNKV
Experimental: (§1) Fig 7 The N- and O-glycosylated sequon adjacent to the cleavage site is of minor importance for IL-6R cleavage. (A) Amino-acid sequence of the two unglycosylated peptides 1(QD) and 2(QA). Peptides were incubated either with or without recombinant ADAM17 for 16 h at 37°C, and the amount of cleaved peptide was analyzed by reversed-phase (RP) chromatography. (B) Amino-acid sequence of the two glycopeptides 3(QD) and 4(QA), which have a GlcNAc attached to the amino-acid residue corresponding to Asn-350 of the IL-6R. Cleavage was determined as described in panel (A). (C) Amino-acid sequence of the two glycopeptides 5(QD) and 6(QA), which have a biantennary N-glycan attached to the amino-acid residue corresponding to Asn-350 of the IL-6R. Cleavage was determined as described in panel (A). (D) Amino-acid sequence of the two glycopeptides 7(QD) and 8(QA), which have a GalNAc attached to the amino-acid residue corresponding toThr-352 of the IL-6R. Cleavage was determined as described in panel (A). (E) Amino-acid sequence of the two glycopeptides 9(QD) and 10(QA), which have a biantennary N-glycan attached to the amino-acid residue corresponding to Asn-350 and a GalNAc attached to the amino-acid residue corresponding toThr-352 of the IL-6R. Cleavage was determined as described in panel (A). All data shown are the mean ± SD from three independent experiments (*p < 0.05, **p < 0.01, ***p < 0.001, compared to the untreated peptide; ^§p < 0.05, compared to the cleaved nonglycosylated peptide).
(§2) Two 1.5 ml reaction tubes were filled with 50 μl peptide (50 μM) solved in 25 mM Hepes (pH 9.0), and 0.5 μl of the recombinant catalytic domain of ADAM17 was added to one of the reaction tubes, whereas the other sample remained untreated. All samples were incubated for 16 h at 37°C. Afterwards, 1,150 μl 0.1% TFA was added to each sample, and the peptides were separated on a reverse phase chromatography column (Multo High Bio-200-C18) from Chromatographie Service (Langerwehe, Germany) using a linear gradient elution with a binary solvent system and a flow rate of 1 ml/min. Solvent A consisted of 0.1% TFA, and solvent B consisted of 100% ACN. After peak integration, peak areas for cleaved and noncleaved peptides were determined.

[2] = as above; conditions: human, isolated enzyme; 50 μM peptide, 25 mM Hepes pH 9.0, recombinant catalytic domain of ADAM17, 16 h, 37°C, reverse phase C18 chromatography, peak areas; mean of 3 independent experiments; read-out: intact peptide after incubation with ADAM17 (untreated peptide = 100), mean
Experimental: as §1, §2

ADAM10 / ADAM17 [3] = test: PMA-induced shedding of IL-6R-5N in HEK293 cells after pretreatment with inhibitors GI or GW, ELISA (Fig 9D); type: cell-based, human; conditions: HEK293, IL-6R-5N; PMA stimulation, GI or GW given as pretreatment before PMA; mean of n = 3
Experimental: (§3) Fig 9 An IL-6R devoid of all N-glycans is defective in ADAM17-mediated proteolysis. (A) PMA-mediated ectodomain shedding of IL-6R-5N with a stably transduced Ba/F3-gp130 cell line. Data shown are the mean ± SD from three independent experiments compared to wild-type IL-6R. (B) HEK293 cells were transiently transfected with a cDNA encoding wild-type IL-6R. Cells were pretreated with the ADAM10-specific inhibitor GI or the combined ADAM10/ADAM17-specific inhibitor GW for 30 min and then stimulated with 100 nM PMA for 2 h as indicated. The amount of sIL-6R in the cell supernatant was determined by ELISA. One out of three experiments with similar outcomes is shown (mean ± SD, n = 3). (C) The experiment was performed as described under (B), but sIL-6R was precipitated from cell supernatant and analyzed by western blot. Furthermore, the cells were lysed, and IL-6R expression in the lysates was also determined by western blot. β-actin served as loading control. […] (D, E) The experiment was performed as described in […], but HEK293 cells were transiently transfected with a cDNA encoding IL-6R-5N. nd, not detected. (F) Cell-surface expression of the IL-6R-5N variant on transiently transfected HEK293 cells analyzed via flow cytometry (black histogram). […] The expression of all proteins (input) and the interaction of the IL-6R variants with MPD17-CANDIS were analyzed via western blot. […]

ADAM10 / ADAM17 [4] = test: PMA-induced shedding of wild-type IL-6R in HEK293 cells after pretreatment with inhibitors GI or GW, ELISA (Fig 9B); type: cell-based, human; conditions: HEK293, wild-type IL-6R; PMA stimulation, GI or GW given as pretreatment before PMA; mean of n = 3
Experimental: as §3

Ba/F3-gp130 cells = test: Proliferation of Ba/F3-gp130 cells with 10 ng/ml IL-6 plus recombinant sIL-6R or ds-sIL-6R (IL-6 trans-signaling), Cell Titer Blue; type: cell-based; conditions: 0-100 ng/ml with 10 ng/ml IL-6, 48 h
Description: Fig 1 The majority of sIL-6R in human serum is not generated by alternative mRNA splicing. (A) Multiple sequence alignment of amino acids Met-310 to Ala-370 of the full-length human IL-6R with the sIL-6R (Met-310 to Gln-357) and amino acids Met-310 to Leu-365 of the differentially spliced sIL-6R (ds-sIL-6R). The ten unique C-terminal amino-acid residues of the […], which represent the epitope against which the antibody ds6R was raised, are colored in green. (B, C) Proliferation assay of Ba/F3-gp130 cells in response to 10 ng/ml IL-6 and increasing amounts (0–100 ng/ml) of either (B) recombinant sIL-6R or (C) recombinant ds-sIL-6R. Cell viability was assessed after 48 h. […]
Proliferation of the different Ba/F3-gp130-IL-6R cell lines in response to IL-6 and Hyper-IL-6 and of Ba/F3-gp130 cells in response to IL-6 and the two different recombinant sIL-6R variants was determined using the Cell Titer Blue Cell viability assay reagent (Promega, Karlsruhe, Germany), following the manufacturer’s protocol as described previously. Values were measured in triplicates per experiment, and relative light units (RLU) obtained after 60 min were normalized by subtraction of control values obtained after 0 min. The maximum proliferation was set to 100%, and all other values were calculated accordingly.

Molecule	cleavage by recombinant ADAM17, in words [1]	remaining at 16 h [2] [%]	sIL-6R in supernatant (ELISA), Figure 9D, mean (ADAM10 / ADAM17 [3])	sIL-6R in supernatant (ELISA), Figure 9B, mean (ADAM10 / ADAM17 [4])	IL-6 trans-signaling activity, in words (Ba/F3-gp130 cells)
CC[C@H](C)[C@H](NC(=O)[C@@H](N)CC(N)=O)C(=O)N[C@@H](CC(C)C)C(=O)N[C@@H](Cc1ccccc1)C(=O)N[C@@H](CCCNC(=N)N)C(=O)N[C@@H](CC(=O)O)C(=O)N[C@@H](CO)C(=O)N[C@@H](C)C(=O)N[C@@H](CC(=O)N[C@@H]1O[C@H](CO)[C@@H](O[C@@H]2O[C@H](CO)[C@@H](O[C@@H]3O[C@H](CO[C@H]4O[C@H](CO)[C@@H](O)[C@H](O)[C@@H]4O[C@@H]4O[C@H](CO)[C@@H](O[C@@H]5O[C@H](CO)[C@H](O)[C@H](O)[C@H]5O)[C@H](O)[C@H]4NC(C)=O)[C@@H](O)[C@H](O[C@H]4O[C@H](CO)[C@@H](O)[C@H](O)[C@@H]4O[C@@H]4O[C@H](CO)[C@@H](O[C@@H]5O[C@H](CO)[C@H](O)[C@H](O)[C@H]5O)[C@H](O)[C@H]4NC(C)=O)[C@@H]3O)[C@H](O)[C@H]2NC(C)=O)[C@H](O)[C@H]1NC(C)=O)C(=O)N[C@@H](C)C(=O)N[C@H](C(=O)N[C@@H](CO)C(=O)N[C@@H](CC(C)C)C(=O)N1CCC[C@H]1C(=O)N[C@H](C(=O)N[C@@H](CCC(N)=O)C(=O)N[C@@H](C)C(=O)N[C@@H](CO)C(=O)N[C@@H](CO)C(=O)N[C@@H](CO)C(=O)N[C@H](C(=O)N1CCC[C@H]1C(=O)N[C@@H](CC(C)C)C(=O)N1CCC[C@H]1C(=O)O)C(C)C)C(C)C)[C@@H](C)O [6(QA)] (H-NILFRDSAD(X1)ATSLPVQASSSVPLP-OH; N-terminus and C-terminus assumed)	did not alter processing	2.44			
CCCCCCCCCCCCCC(=O)O[C@@H]1[C@@H](C)[C@@]2(O)[C@@H](C=C(CO)C[C@]3(O)C(=O)C(C)=C[C@@H]23)[C@@H]2C(C)(C)[C@]12OC(C)=O [PMA, phorbol-12-myristate-13-acetate]			0	71566.4	
CC[C@H](C)[C@H](NC(=O)[C@@H](N)CC(N)=O)C(=O)N[C@@H](CC(C)C)C(=O)N[C@@H](Cc1ccccc1)C(=O)N[C@@H](CCCNC(=N)N)C(=O)N[C@@H](CC(=O)O)C(=O)N[C@@H](CO)C(=O)N[C@@H](C)C(=O)N[C@@H](CC(=O)N[C@@H]1O[C@H](CO)[C@@H](O[C@@H]2O[C@H](CO)[C@@H](O[C@@H]3O[C@H](CO[C@H]4O[C@H](CO)[C@@H](O)[C@H](O)[C@@H]4O[C@@H]4O[C@H](CO)[C@@H](O[C@@H]5O[C@H](CO)[C@H](O)[C@H](O)[C@H]5O)[C@H](O)[C@H]4NC(C)=O)[C@@H](O)[C@H](O[C@H]4O[C@H](CO)[C@@H](O)[C@H](O)[C@@H]4O[C@@H]4O[C@H](CO)[C@@H](O[C@@H]5O[C@H](CO)[C@H](O)[C@H](O)[C@H]5O)[C@H](O)[C@H]4NC(C)=O)[C@@H]3O)[C@H](O)[C@H]2NC(C)=O)[C@H](O)[C@H]1NC(C)=O)C(=O)N[C@@H](C)C(=O)N[C@H](C(=O)N[C@@H](CO)C(=O)N[C@@H](CC(C)C)C(=O)N1CCC[C@H]1C(=O)N[C@H](C(=O)N[C@@H](CCC(N)=O)C(=O)N[C@@H](CC(=O)O)C(=O)N[C@@H](CO)C(=O)N[C@@H](CO)C(=O)N[C@@H](CO)C(=O)N[C@H](C(=O)N1CCC[C@H]1C(=O)N[C@@H](CC(C)C)C(=O)N1CCC[C@H]1C(=O)O)C(C)C)C(C)C)[C@@H](C)O[C@H]1O[C@H](CO)[C@H](O)[C@H](O)[C@H]1NC(C)=O [9(QD)] (H-NILFRDSAD(X1)AT(αGalNAc)SLPVQDSSSVPLP-OH; N-terminus and C-terminus assumed)	again blocked	95.6			
CNC(=O)[C@@H](NC(=O)[C@H](CCCc1ccccc1)[C@H](C)N(O)C=O)C(C)(C)C [GI]			0	48715.8	
sIL-6R: recombinant soluble IL-6 receptor expressed in HEK293-EBNA cells (protein, UniProt P08887 20-365, looked up, extracellular domain recombinant, recombinant soluble IL-6 receptor expressed in HEK293-EBNA cells) extracellular domain: LAPRRCPAQEVARGVLTSLPGDSVTLTCPGVEPEDNATVHWVLRKPAAGSHPSRWAGMGRRLLLRSVQLHDSGNYSCYRAGRPAGTVHLLVDVPPEEPQLSCFRKSPLSNVVCEWGPRSTPSLTTKAVLLVRKFQNSPAEDFQEPCQYSQESQKFSCQLAVPEGDSSFYIVSMCVASSVGSKFSKTQTFQGCGILQPDPPANITVTAVARNPRWLSVTWQDPHSWNSSFYRLRFELRYRAERSKTFTTWMVKDLQHHCVIHDAWSGLRHVVQLRAQEEFGQGEWSEWSPEAMGTPWTESRSPPAENEVSTPMQALTTNKDDDNILFRDSANATSLPVQDSSSVPLP					biologically active
